From patent US10336735B2, “Small molecule inhibitors of fibrosis” (THE CALIFORNIA INSTITUTE FOR BIOMEDICAL RESEARCH, priority 2014, dated 2019)

Tested on: primary human lung fibroblasts and primary rodent HSCs
Assay: High content imaging assay (α-SMA staining, cell morphology) of fibroblast to myofibroblast transdifferentiation, confirmed by Western blot and RT-PCR
Details: Homo sapiens, Fibroblast; imaging and western based activity
Source text: High content imaging assays have been established, using primary human lung fibroblasts and primary rodent HSCs, that enable the identification of small molecules that either inhibit myofibroblast formation/activation or induce the reversion of activated myofibroblasts to a quiescent fibroblast state. Conditions, involving serum starvation and subsequent TGF-β treatment, have been identified that facilitate robust in vitro transdifferentiation in a miniaturized (384 well plate) format that is amenable to high throughput small molecule screening. The inhibition assay is based on α-SMA immunofluorescent staining and cell morphology changes associated with fibroblast to myofibroblast transdifferentiation, Using the selective ALK-5 TGF-β1 receptor inhibitor ([…]) as a positive control, the inhibition assay has been used to initiate a screen of a collection of ˜100,000 small molecules that consists of bioactive small molecules and a diversity set that has been assembled based on 2D and 3D structural diversity and inherent “drug-likeness” properties. Preliminary screening led to the identification of multiple previously identified anti-fibrotic molecules.
A high content imaging assay, based on α-SMA staining and cell morphological changes associated with fibroblast to myofibroblast transdifferentiation, was established using primary human lung fibroblasts and primary rodent HSCs. Conditions, involving serum starvation and subsequent TGF-β treatment, were identified that facilitate robust in vitro transdifferentiation in a miniaturized (384 well plate) format that is amenable to high throughput small molecule screening. A selective ALK-5 TGF-β1 receptor inhibitor (SB-431542) was used as a positive control. […] This assay was used to evaluate compounds of Formula (I), (Ia), (II), (IIa), (III), (IIIa), (IV), (IVa), (IVb), (V), (Va), (VI), (VIa), (VIb), (VIc), (VII), (VIIa), (VIII), (VIIIa), (IX), (IXa), (X), or (Xa) generated from medicinal chemistry efforts.
The activity of Itraconazole and compounds of Formula (I), (Ia), (II), (IIa), (III), (IIIa), (IV), (IVa), (IVb), (V), (Va), (VI), (VIa), (VIb), (VIc), (VII), (VIIa), (VIII), (VIIIa), (IX), (IXa), (X), or (Xa) was confirmed by analyzing changes in gene expression of multiple genes associated with fibroblast to myofibroblast transdifferentiation using biochemical methods (i.e., Western blot and RT-PCR). These 4-day assays were used to evaluate sets of 6 compounds at a time in 4-point dose response fashion.
The EC50 for (imaging and western based) activity is graded as: +++=<500 nM; ++=500 nM to 5 μM; +=5 to 30 μM); −=>30 μM; NT=Not Tested.

CCC(C)n1ncn(-c2ccc(N3CCN(c4ccc(OC[C@@H]5CO[C@@](Cn6nccn6)(c6ccc(Cl)cc6Cl)O5)nc4)CC3)cc2)c1=O (stereo partly shown) [Compound 54]
EC50: 0.5 to 5 µM

CCC(C)n1ncn(-c2ccc(N3CCN(c4ccc(OC[C@@H]5CO[C@@](Cn6nccn6)(c6ccc(Cl)cc6Cl)O5)cc4CN)CC3)cc2)c1=O (stereo partly shown) [Compound 55]
EC50: < 0.5 µM

CCC(C)n1ncn(-c2ccc(N3CCN(c4ccc(OC[C@@H]5CO[C@@](Cn6nccn6)(c6ccc(Cl)cc6Cl)O5)cc4C#N)CC3)cc2)c1=O (stereo partly shown) [Compound 56]
EC50: 0.5 to 5 µM

CCC(C)n1ncn(-c2ccc(N3CCN(c4ccc(OC[C@@H]5CO[C@@](Cn6nccn6)(c6ccc(Cl)cc6Cl)O5)c(C#N)c4)CC3)cc2)c1=O (stereo partly shown) [Compound 57]
EC50: < 0.5 µM

CCC(C)n1ncn(-c2ccc(N3CCN(c4ccc(OC[C@@H]5CO[C@@](Cn6nccn6)(c6ccccc6)O5)cc4F)CC3)cc2)c1=O (stereo partly shown) [Compound 58]
EC50: < 0.5 µM

CCC(C)n1ncn(-c2ccc(N3CCN(c4ccc(OC[C@@H]5CO[C@@](Cn6nccn6)(c6ccccc6)O5)c(C(F)(F)F)c4)CC3)cc2)c1=O (stereo partly shown) [Compound 59]
EC50: 5 to 30 µM

CCC(C)n1ncn(-c2ccc(N3CCN(c4ccc(OC[C@@H]5CO[C@@](Cn6nccn6)(c6ccccc6)O5)cc4C(F)(F)F)CC3)cc2)c1=O (stereo partly shown) [Compound 60]
EC50: 5 to 30 µM

CCC(C)n1ncn(-c2ccc(N3CCN(c4cc(C)c(OC[C@@H]5CO[C@@](Cn6nccn6)(c6ccccc6)O5)c(C)c4)CC3)cc2)c1=O (stereo partly shown) [Compound 61]
EC50: 5 to 30 µM

CCC(C)n1ncn(-c2ccc(N3CCN(c4cc(F)c(OC[C@@H]5CO[C@@](Cn6nccn6)(c6ccccc6)O5)c(F)c4)CC3)cc2)c1=O (stereo partly shown) [Compound 62]
EC50: 5 to 30 µM

CCC(C)n1ncn(-c2ccc(N3CCN(c4ccc(OC[C@@H]5CO[C@@](Cn6nccn6)(c6ccccc6)O5)c(F)c4F)CC3)cc2)c1=O (stereo partly shown) [Compound 63]
EC50: 5 to 30 µM

CCC(C)n1ncn(-c2ccc(N3CCN(c4ccc(OC[C@@H]5CO[C@@](Cn6nccn6)(c6ccccc6)O5)c(S(C)(=O)=O)c4)CC3)cc2)c1=O (stereo partly shown) [Compound 64]
EC50: 0.5 to 5 µM

CCC(C)n1ncn(-c2ccc(N3CCN(c4ccc(OC[C@@H]5CO[C@@](Cn6nccn6)(c6ccccc6)O5)c(C#N)c4)CC3)cc2)c1=O (stereo partly shown) [Compound 65]
EC50: < 0.5 µM

CCC(C)n1ncn(-c2ccc(N3CCN(c4ccc(OC[C@@H]5CO[C@@](Cn6nccn6)(c6ccccc6)O5)cc4C#N)CC3)cc2)c1=O (stereo partly shown) [Compound 66]
EC50: < 0.5 µM

CCC(C)n1ncn(-c2ccc(N3CCN(c4ccc(OC[C@@H]5CO[C@@](Cn6nccn6)(c6ccccc6)O5)cc4CN)CC3)cc2)c1=O (stereo partly shown) [Compound 67]
EC50: 0.5 to 5 µM

CCC(C)n1ncn(-c2ccc(N3CCN(c4ccc(OC[C@@H]5CO[C@@](Cn6nccn6)(c6ccccc6)O5)c(CN)c4)CC3)cc2)c1=O (stereo partly shown) [Compound 68]
EC50: < 0.5 µM

CCC(C)n1ncn(-c2ccc(N3CCN(c4ccc(OC[C@@H]5CO[C@@](Cn6nccn6)(c6ccc(Cl)cc6Cl)O5)cc4)CC3)c(F)c2)c1=O (stereo partly shown) [Compound 69]
EC50: 0.5 to 5 µM

CCC(C)n1ncn(-c2ccc(N3CCN(c4ccc(OC[C@@H]5CO[C@@](Cn6nccn6)(c6ccc(Cl)cc6Cl)O5)cc4)CC3)cc2F)c1=O (stereo partly shown) [Compound 70]
EC50: 0.5 to 5 µM

CCC(C)n1ncn(-c2ccc(N3CCN(c4ccc(OC[C@@H]5CO[C@@](Cn6nccn6)(c6ccccc6)O5)cc4)CC3)c(C#N)c2)c1=O (stereo partly shown) [Compound 71]
EC50: 5 to 30 µM

CCC(C)n1ncn(-c2ccc(N3CCN(c4ccc(OC[C@@H]5CO[C@@](Cn6nccn6)(c6ccccc6)O5)cc4)C(C)C3)cc2)c1=O (stereo partly shown) [Compound 72]
EC50: 5 to 30 µM

CCC(C)n1ncn(-c2ccc(N3CCN(c4ccc(OC[C@@H]5CO[C@@](Cn6nccn6)(c6ccccc6)O5)cc4)CC3C)cc2)c1=O (stereo partly shown) [Compound 73]
EC50: 5 to 30 µM

CCC(C)n1ncn(-c2ccc(N3CCCN(c4ccc(OC[C@@H]5CO[C@@](Cn6nccn6)(c6ccc(Cl)cc6Cl)O5)cc4)CC3)cc2)c1=O (stereo partly shown) [Compound 74]
EC50: 0.5 to 5 µM

CCC(C)n1ncn(-c2ccc(N3CCN(c4ccc(OC[C@@H]5CO[C@@](Cn6nccn6)(c6ccc(Cl)cc6Cl)O5)cc4)CC3)cc2)c1=S (stereo partly shown) [Compound 75]
EC50: > 30 µM

CCC(C)n1ncn(-c2cccc(N3CCN(c4ccc(OC[C@@H]5CO[C@@](Cn6nccn6)(c6ccc(Cl)cc6Cl)O5)cc4)CC3)c2)c1=O (stereo partly shown) [Compound 77]
EC50: > 30 µM

CCC(C)n1ncn(-c2ccc(N3CCN(c4cccc(OC[C@@H]5CO[C@@](Cn6nccn6)(c6ccc(Cl)cc6Cl)O5)c4)CC3)cc2)c1=O (stereo partly shown) [Compound 78]
EC50: 0.5 to 5 µM

CCC(C)n1ncn(-c2ccc(N3CCN(c4ccccc4OC[C@@H]4CO[C@@](Cn5nccn5)(c5ccc(Cl)cc5Cl)O4)CC3)cc2)c1=O (stereo partly shown) [Compound 79]
EC50: > 30 µM

CCC(C)n1ncn(-c2ccc(N3CCN(c4ccc(OC[C@@H]5CO[C@@](Cn6cccn6)(c6cc(Cl)cc(Cl)c6)O5)cc4)CC3)cc2)c1=O (stereo partly shown) [Compound 80]
EC50: 0.5 to 5 µM

CCC(C)n1ncn(-c2ccc(N3CCN(c4ccc(OC[C@@H]5CO[C@@](Cn6cccn6)(c6ccc(Cl)cc6)O5)cc4)CC3)cc2)c1=O (stereo partly shown) [Compound 81]
EC50: < 0.5 µM

CCC(C)n1ncn(-c2ccc(N3CCN(c4ccc(OC[C@@H]5CO[C@@](Cn6cccn6)(c6cccc(Cl)c6)O5)cc4)CC3)cc2)c1=O (stereo partly shown) [Compound 82]
EC50: < 0.5 µM

CCC(C)n1ncn(-c2ccc(N3CCN(c4ccc(OC[C@@H]5CO[C@@](Cn6cccn6)(c6ccccc6Cl)O5)cc4)CC3)cc2)c1=O (stereo partly shown) [Compound 83]
EC50: < 0.5 µM

CCC(C)n1ncn(-c2ccc(N3CCN(c4ccc(OC[C@@H]5CO[C@@](Cn6cccn6)(c6ccc(Cl)c(Cl)c6)O5)cc4)CC3)cc2)c1=O (stereo partly shown) [Compound 84]
EC50: 0.5 to 5 µM

CCC(C)n1ncn(-c2ccc(N3CCN(c4ccc(OC[C@@H]5CO[C@@](Cn6cccn6)(c6ccccc6OC)O5)cc4)CC3)cc2)c1=O (stereo partly shown) [Compound 85]
EC50: 0.5 to 5 µM

CCC(C)n1ncn(-c2ccc(N3CCN(c4ccc(OC[C@@H]5CO[C@@](Cn6cccn6)(c6cccc(OC)c6)O5)cc4)CC3)cc2)c1=O (stereo partly shown) [Compound 86]
EC50: < 0.5 µM

CCC(C)n1ncn(-c2ccc(N3CCN(c4ccc(OC[C@@H]5CO[C@@](Cn6cccn6)(c6ccc(OC)cc6)O5)cc4)CC3)cc2)c1=O (stereo partly shown) [Compound 87]
EC50: < 0.5 µM

CCC(C)n1ncn(-c2ccc(N3CCN(c4ccc(OC[C@@H]5CO[C@@](Cn6cccn6)(c6cccc(C#N)c6)O5)cc4)CC3)cc2)c1=O (stereo partly shown) [Compound 88]
EC50: 0.5 to 5 µM

CCC(C)n1ncn(-c2ccc(N3CCN(c4ccc(OC[C@@H]5CO[C@@](Cn6cccn6)(c6ccc(C#N)cc6)O5)cc4)CC3)cc2)c1=O (stereo partly shown) [Compound 89]
EC50: 0.5 to 5 µM

CCC(C)n1ncn(-c2ccc(N3CCN(c4ccc(OC[C@@H]5CO[C@@](Cn6cccn6)(c6ccccc6C#N)O5)cc4)CC3)cc2)c1=O (stereo partly shown) [Compound 90]
EC50: 0.5 to 5 µM

CCC(C)n1ncn(-c2ccc(N3CCN(c4ccc(OC[C@@H]5CO[C@@](Cn6cccn6)(c6ccccc6C(F)(F)F)O5)cc4)CC3)cc2)c1=O (stereo partly shown) [Compound 91]
EC50: < 0.5 µM

CCC(C)n1ncn(-c2ccc(N3CCN(c4ccc(OC[C@@H]5CO[C@@](Cn6cccn6)(c6cccc(C(F)(F)F)c6)O5)cc4)CC3)cc2)c1=O (stereo partly shown) [Compound 92]
EC50: < 0.5 µM

CCC(C)n1ncn(-c2ccc(N3CCN(c4ccc(OC[C@@H]5CO[C@@](Cn6cccn6)(c6ccc(C(F)(F)F)cc6)O5)cc4)CC3)cc2)c1=O (stereo partly shown) [Compound 93]
EC50: < 0.5 µM

CCC(C)n1ncn(-c2ccc(N3CCN(c4ccc(OC[C@@H]5CO[C@@](Cn6cccn6)(c6ccc(OC(F)(F)F)cc6)O5)cc4)CC3)cc2)c1=O (stereo partly shown) [Compound 94]
EC50: < 0.5 µM
